pIC50: −log10 of the molar value.
These compounds were tested on A. baumannii strain ATCC17978 (assay: 50% growth inhibitory concentration (IC50) determination, Iso-Sensitest broth). Settings: Acinetobacter baumannii, ATCC17978, 16 h, read-out: IC50 ATCC17978.
Type: cell-based
Procedure: The in vitro antimicrobial activity of the compounds was alternatively determined according to the following procedure:
The assay used a 10-points Iso-Sensitest broth medium to measure quantitatively the in vitro activity of the compounds against A. baumannii ATCC 17978.
Stock compounds in DMSO were serially twofold diluted (e.g. range from 50 to 0.097 μM final concentration) in 384 wells microtiter plates and inoculated with 49 μl the bacterial suspension in Iso-Sensitest medium to have a final cell concentration of ˜5×10^(5) CFU/ml in a final volume/well of 50 ul/well. Microtiter plates were incubated at 35±2° C.
Bacterial cell growth was determined with the measurement of optical density at λ=600 nm each 20 minutes over a time course of 16 h.
Growth inhibition was calculated during the logarithmic growth of the bacterial cells with determination of the concentration inhibiting 50% (IC50) and 90% (IC90) of the growth.
Tables 3, 4 and 5 provide the 50% growth inhibitory concentrations (IC50) in micromoles per liter of the compounds of present invention obtained against the A. baumannii strain ATCC17978.
For `CN1C(=O)[C@H](CCCCN)NC(=O)[C@H](CCCN)NCc2cccnc2Sc2c(Cl)ccc(-c3ccc(C(=O)O)cc3)c2CNC(=O)[C@@H]1Cc1c[nH]c2ccccc12` [Example 239, 4-[(11S,14S,17S)-14-(4-Amino-butyl)-11-(3-amino-propyl)-25-chloro-17-(1H-indol-3-ylmethyl)-16-methyl-12,15,18-trioxo-2-thia-4,10,13,16,19-pentaaza-tricyclo[19.4.0.0*3,8*]pentacosa-1 (25),3(8),4,6,21,23-hexaen-22-yl]-benzoic acid], the pIC50 was greater than 6.00.

Same assay, conditions: Acinetobacter baumannii; A. baumannii ATCC17978; Iso-Sensitest medium; OD 600 nm over 16 h; read-out: IC50 ATCC17978
With `CN1C(=O)[C@H](CCCCN)NC(=O)[C@H](CCCN)NCc2ccccc2Sc2c(ccc(Br)c2Cl)CNC(=O)[C@@H]1Cc1c[nH]c2ccccc12` [Example 168, (12S,15S,18S)-15-(4-Amino-butyl)-18-(3-amino-propyl)-5-bromo-4-chloro-12-(1H-indol-3-ylmethyl)-13-methyl-2-thia-10,13,16,19-tetraaza-tricyclo[19.4.0.0*3,8*]pentacosa-1(25),3,5,7,21,23-hexaene-11,14,17-trione] the pIC50 was greater than 6.40. With `CN1C(=O)[C@H](CCCCN)NC(=O)[C@H](CCCN)NCc2ccccc2Sc2c(ccc(-c3ccccc3)c2Cl)CNC(=O)[C@@H]1Cc1c[nH]c2ccccc12` [Example 176, (12S,15S,18S)-15-(4-Amino-butyl)-18-(3-amino-propyl)-4-chloro-12-(1H-indol-3-ylmethyl)-13-methyl-5-phenyl-2-thia-10,13,16,19-tetraaza-tricyclo[19.4.0.0*3,8*]pentacosa-1(25),3,5,7,21,23-hexaene-11,14,17-trione] the pIC50 was 5.29. `CN1C(=O)[C@H](CCCCN)NC(=O)[C@H](CCCN)NCc2ccccc2Sc2c(-c3cccnc3)ncc(Cl)c2CNC(=O)[C@@H]1Cc1c[nH]c2ccccc12` [Example 194] gave a pIC50 of 5.48. `CN1C(=O)[C@H](CCCCN)NC(=O)[C@H](CCCN)NCc2ccccc2Sc2c(-c3ccncc3)ncc(Cl)c2CNC(=O)[C@@H]1Cc1c[nH]c2ccccc12` [Example 195] gave a pIC50 of 5.52. `COc1cc(-c2ncc(Cl)c3c2Sc2ccccc2CN[C@@H](CCCN)C(=O)N[C@@H](CCCCN)C(=O)N(C)[C@@H](Cc2c[nH]c4ccccc24)C(=O)NC3)ccn1` [Example 196] showed a pIC50 of 7.00. `CN1C(=O)[C@H](CCCCN)NC(=O)[C@H](CCCN)NCc2cccnc2Sc2ccc(Br)nc2CNC(=O)[C@@H]1Cc1c[nH]c2ccccc12` [Example 197, (7S,10S,13S)-13-((1H-Indol-3-yl)methyl)-10-(4-aminobutyl)-7-(3-aminopropyl)-18-bromo-12-methyl-6,7,9,10,12,13,15,16-octahydrodipyrido[2,3-b:2′,3′-p][1,5,8,11,14]thiatetraazacycloheptadecine-8,11,14(5H)-trione] gave a pIC50 of 6.70. `CN1C(=O)[C@H](CCCCN)NC(=O)[C@H](CCCN)NCc2ccccc2Sc2c(-c3ccnc(C(F)(F)F)c3)ncc(Cl)c2CNC(=O)[C@@H]1Cc1c[nH]c2ccccc12` [Example 198] showed a pIC50 of 6.52. In the case of `CN1C(=O)[C@H](CCCCN)NC(=O)[C@H](CCCN)NCc2ccccc2Sc2c(N3CCOCC3)ncc(Cl)c2CNC(=O)[C@@H]1Cc1c[nH]c2ccccc12` [Example 201], the pIC50 was 6.40. `CN1C(=O)[C@H](CCCCN)NC(=O)[C@H](CCCN)NCc2cc(Br)ccc2Sc2c(Cl)cccc2CNC(=O)[C@@H]1Cc1c[nH]c2ccccc12` [Example 206, (12S,15S,18S)-15-(4-Amino-butyl)-18-(3-amino-propyl)-23-bromo-4-chloro-12-(1H-indol-3-ylmethyl)-13-methyl-2-thia-10,13,16,19-tetraaza-tricyclo[19.4.0.0*3,8*]pentacosa-1(25),3,5,7,21,23-hexaene-11,14,17-trione] showed a pIC50 of 5.85. `CN1C(=O)[C@H](CCCCN)NC(=O)[C@H](CCCN)NCc2cc(-c3ccccc3)ccc2Sc2c(Cl)cccc2CNC(=O)[C@@H]1Cc1c[nH]c2ccccc12` [Example 207, (12S,15S,18S)-15-(4-Amino-butyl)-18-(3-amino-propyl)-4-chloro-12-(1H-indol-3-ylmethyl)-13-methyl-23-phenyl-2-thia-10,13,16,19-tetraaza-tricyclo[19.4.0.0*3,8*]pentacosa-1(25),3,5,7,21,23-hexaene-11,14,17-trione] gave a pIC50 of 5.05. With `CN1C(=O)[C@H](CCCCN)NC(=O)[C@H](CCCN)NCc2cc(-c3cccnc3)ccc2Sc2c(Cl)cccc2CNC(=O)[C@@H]1Cc1c[nH]c2ccccc12` [Example 208, (12S,15S,18S)-15-(4-Amino-butyl)-18-(3-amino-propyl)-4-chloro-12-(1H-indol-3-ylmethyl)-13-methyl-23-pyridin-3-yl-2-thia-10,13,16,19-tetraaza-tricyclo[19.4.0.0*3,8*]pentacosa-1(25),3,5,7,21,23-hexaene-11,14,17-trione] the pIC50 was 4.90. For `Cc1cc(-c2ccc3c(n2)CNC(=O)[C@H](Cc2c[nH]c4ccccc24)N(C)C(=O)[C@H](CCCCN)NC(=O)[C@H](CCCN)NCc2cccnc2S3)ccn1` [Example 215, (7S,10S,13S)-13-((1H-Indol-3-yl)methyl)-10-(4-aminobutyl)-7-(3-aminopropyl)-12-methyl-18-(2-methylpyridin-4-yl)-6,7,9,10,12,13,15,16-octahydrodipyrido[2,3-b:2′,3′-p][1,5,8,11,14]thiatetraazacycloheptadecine-8,11,14(5H)-trione], the pIC50 was 5.70. Compound `CN1C(=O)[C@H](CCCCN)NC(=O)[C@H](CCCN)NCc2cc(-c3ccc(CN)cc3)ccc2Sc2c(Cl)cccc2CNC(=O)[C@@H]1Cc1c[nH]c2ccccc12` [Example 216, (12S,15S,18S)-15-(4-Amino-butyl)-23-(4-aminomethyl-phenyl)-18-(3-amino-propyl)-4-chloro-12-(1H-indol-3-ylmethyl)-13-methyl-2-thia-10,13,16,19-tetraaza-tricyclo[19.4.0.0*3,8*]pentacosa-1(25),3,5,7,21,23-hexaene-11,14,17-trione] has a pIC50 of 6.15. `COc1cc(-c2ccc3c(n2)CNC(=O)[C@H](Cc2c[nH]c4ccccc24)N(C)C(=O)[C@H](CCCCN)NC(=O)[C@H](CCCN)NCc2cccnc2S3)ccn1` [Example 217, (7S,10S,13S)-13-((1H-Indol-3-yl)methyl)-10-(4-aminobutyl)-7-(3-aminopropyl)-18-(2-methoxypyridin-4-yl)-12-methyl-6,7,9,10,12,13,15,16-octahydrodipyrido[2,3-b:2′,3′-p][1,5,8,11,14]thiatetraazacycloheptadecine-8,11,14(5H)-trione] gave a pIC50 of 6.00. For `CN1C(=O)[C@H](CCCCN)NC(=O)[C@H](CCCN)NCc2cccnc2Sc2ccc(N3CCOCC3)nc2CNC(=O)[C@@H]1Cc1c[nH]c2ccccc12` [Example 218, (7S,10S,13S)-13-((1H-Indol-3-yl)methyl)-10-(4-aminobutyl)-7-(3-aminopropyl)-12-methyl-18-morpholino-6,7,9,10,12,13,15,16-octahydrodipyrido[2,3-b:2′,3′-p][1,5,8,11,14]thiatetraazacycloheptadecine-8,11,14(5H)-trione], the pIC50 was 5.70. `CN1C(=O)[C@H](CCCCN)NC(=O)[C@H](CCCN)NCc2ccc(Br)cc2Sc2c(Cl)cccc2CNC(=O)[C@@H]1Cc1c[nH]c2ccccc12` [Example 219, (12S,15S,18S)-15-(4-Amino-butyl)-18-(3-amino-propyl)-24-bromo-4-chloro-12-(1H-indol-3-ylmethyl)-13-methyl-2-thia-10,13,16,19-tetraaza-tricyclo[19.4.0.0*3,8*]pentacosa-1(25),3,5,7,21,23-hexaene-11,14,17-trione] showed a pIC50 of 6.22. For `CN1C(=O)[C@H](CCCCN)NC(=O)[C@H](CCCN)NCc2ccc(-c3ccccc3)cc2Sc2c(Cl)cccc2CNC(=O)[C@@H]1Cc1c[nH]c2ccccc12` [Example 220, (12S,15S,18S)-15-(4-Amino-butyl)-18-(3-amino-propyl)-4-chloro-12-(1H-indol-3-ylmethyl)-13-methyl-24-phenyl-2-thia-10,13,16,19-tetraaza-tricyclo[19.4.0.0*3,8*]pentacosa-1(25),3,5,7,21,23-hexaene-11,14,17-trione], the pIC50 was 5.24. `CN1C(=O)[C@H](CCCCN)NC(=O)[C@H](CCCN)NCc2cc(Br)cnc2Sc2ccccc2CNC(=O)[C@@H]1Cc1c[nH]c2ccccc12` [Example 236, (7S,10S,13S)-13-((1H-Indol-3-yl)methyl)-10-(4-aminobutyl)-7-(3-aminopropyl)-3-bromo-12-methyl-6,7,9,10,12,13,15,16-octahydrobenzo[b]pyrido[3,2-p][1,5,8,11,14]thiatetraazacycloheptadecine-8,11,14(5H)-trione] showed a pIC50 of 5.49. `CN(C)c1nccc2c1CNC(=O)[C@H](Cc1c[nH]c3ccccc13)N(C)C(=O)[C@H](CCCCN)NC(=O)[C@H](CCCN)NCc1cccnc1S2` [Example 237, (7S,10S,13S)-13-((1H-Indol-3-yl)methyl)-10-(4-aminobutyl)-7-(3-aminopropyl)-17-(dimethylamino)-12-methyl-6,7,9,10,12,13,15,16-octahydrodipyrido [2,3-b:3′,4′-p][1,5,8,11,14]thiatetraazacycloheptadecine-8,11,14(5H)-trione] showed a pIC50 of 6.10. Compound `CN1C(=O)[C@H](CCCCN)NC(=O)[C@H](CCCN)NCc2cccnc2Sc2ccnc(-c3cccnc3)c2CNC(=O)[C@@H]1Cc1c[nH]c2ccccc12` [Example 238, (7S,10S,13S)-13-((1H-Indol-3-yl)methyl)-10-(4-aminobutyl)-7-(3-aminopropyl)-12-methyl-17-(pyridin-3-yl)-6,7,9,10,12,13,15,16-octahydrodipyrido[2,3-b:3′,4′-p][1,5,8,11,14]thiatetraazacycloheptadecine-8,11,14(5H)-trione] has a pIC50 of 5.25.

From patent US10030047B2 (Hoffmann-La Roche Inc., priority 2015, dated 2018)
